Laboratory results as given in patent publication US10906905B2, “Five-membered heteroaryl ring bridged ring derivative, preparation method therefor and medical use thereof” (Jiangsu Hengrui Medicine Co., Ltd., priority 2016, dated 2021).

Experiments:
NIH3T3 cell = assay: Inhibition of NIH3T3 cell proliferation (CellTiter-Glo); type: cell-based; conditions: Mus musculus, 72 hours, 0.5% FBS
TGFβRI kinase ALK5 = TGFβRI kinase ALK5 (Homo sapiens (Human), UniProt P36897); assay: Inhibition of TGFβRI kinase ALK5 activity (TGFβRI kinase assay kit, ADP-Glo); type: biochemical; conditions: ATP 50 μM; read-out: IC50 of inhibition effect on TGFβRI kinase ALK5 activity
Summary of the method: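 Kinase reaction: 2 ng/μL enzyme in Tris pH 7.5, MgCl2, BSA buffer with 50 μM ATP and 0.2 μg/μL substrate peptide, 2.5 h at 27 °C. ADP formation read by ADP-Glo luminescence over 3-fold compound dilutions; IC50 calculated from signal versus concentration.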

Sequence of TGFβRI kinase ALK5 (P36897 34-503): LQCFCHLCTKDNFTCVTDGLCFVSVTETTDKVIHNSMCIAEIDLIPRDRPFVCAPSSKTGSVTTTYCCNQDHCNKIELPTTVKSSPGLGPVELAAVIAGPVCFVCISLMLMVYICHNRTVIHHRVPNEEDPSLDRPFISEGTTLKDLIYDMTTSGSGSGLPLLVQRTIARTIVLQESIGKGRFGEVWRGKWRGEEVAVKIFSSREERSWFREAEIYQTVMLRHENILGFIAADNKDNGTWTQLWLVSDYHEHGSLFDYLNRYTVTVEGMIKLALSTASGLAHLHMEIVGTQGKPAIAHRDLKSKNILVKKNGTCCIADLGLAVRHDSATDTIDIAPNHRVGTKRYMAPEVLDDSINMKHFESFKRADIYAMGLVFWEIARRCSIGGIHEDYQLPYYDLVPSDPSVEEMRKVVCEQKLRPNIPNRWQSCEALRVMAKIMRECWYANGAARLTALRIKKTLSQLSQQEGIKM

IC50 (TGFβRI kinase ALK5) [nM] | Structure (SMILES) | IC50 (NIH3T3 cell) [nM]
9 | Cc1cccc(-c2nc3n(c2-c2ccc4nccc(C(N)=O)c4c2)[C@H]2CC[C@@H]3C2)n1 [Example 1-1, 6-((5S,8R)-2-(6-Methylpyridin-2-yl)-5,6,7,8-tetrahydro-5,8-methanoimidazo[1,2-a]pyridin-3-yl)quinoline-4-carboxamide] | 89
3 | Cc1cccc(-c2nc3n(c2-c2ccc4nnc(C(N)=O)n4c2)[C@H]2CC[C@@H]3C2)n1 [Example 2-1, 6-((5S,8R)-2-(6-Methylpyridin-2-yl)-5,6,7,8-tetrahydro-5,8-methanoimidazo[1,2-a]pyridin-3-yl)[1,2,4]triazolo[4,3-a]pyridine-3-carboxamide] | 44
4 | Cc1cccc(-c2nc3n(c2-c2ccnc(-c4ccc(S(C)(=O)=O)cc4)c2)[C@H]2CC[C@@H]3C2)n1 [Example 3-1, (5S,8R)-2-(6-Methylpyridin-2-yl)-3-(2-(4-(methylsulfonyl)phenyl)pyridin-4-yl)-5,6,7,8-tetrahydro-5,8-methanoimidazo[1,2-a]pyridine] | 28
26 | NC(=O)c1ccnc2ccc(-c3c(-c4ccc(F)cn4)nc4n3[C@H]3CC[C@@H]4C3)cc12 [Example 39-1, 6-((5S,8R)-2-(5-Fluoropyridin-2-yl)-5,6,7,8-tetrahydro-5,8-methanoimidazo[1,2-a]pyridin-3-yl)quinoline-4-carboxamide] | 88
